Test results from patent US20240124483A1, “Methods for the Treatment of Fibrotic Disease” (SHY Therapeutics, LLC, priority 2021, published 2024).
Like-named read-outs stand apart in the source and are kept apart here.

Experiments:
JNK = JNK Activation Assay in Panc-1 (western blot); format: cell-based, Human; set-up: key: Y = yes; N = No; settings: at 10 μM
Protocol: (§1) Cell lines: Human tumor-derived pancreatic cancer cell line Panc-1 and mouse muscle myoblast C2C12 were purchased from American Type Culture Collection and grown in complete DMEM-High Glucose, supplemented with penicillin (100 U/mL), streptomycin (100 μg/mL), and 10% heat-inactivated FBS at 37° C. in a humidified incubator with 5% CO2.
(§2) Method: Cells were plated at 350000 cells/well density in a 12-well plate, allowed 3 hours to adhere to the plate, then starved in the appropriate medium in the presence of 0.5% FBS overnight. The small molecules to be tested were added to the cells in the final concentration of 10 μM in the presence of 0.3% DMSO for 3 hours incubation at 37° C. For IC50 value determination, serial dilutions of compounds were added to cells under the same conditions. Next, Panc-1 cells were stimulated with 10 ng/ml TGF-b1 for 1 hour, and C2C12 cells were stimulated with 10 ng/ml TGF-b1 for 20 minutes (recombinant human TGF-b1, R&D Systems). After stimulation cells were lysed with lysis buffer containing 1% Triton X-100, EDTA, and Halt™ Protease & Phosphatase Inhibitor Cocktail (Thermo Scientific). Protein concentration was assessed by BCA protein assay (Thermo Scientific). Phosphorylation level of JNK was determined by western blot.
(§3) Western blot protocol: Equal amounts of protein (15-50 μg) were separated by SDS-PAGE and transferred to nitrocellulose membranes (Invitrogen by Thermo Fisher Scientific). The membrane was stained with Ponceau S Stain (Boston BioProducts) to verify uniform protein loading. Membranes were blocked with 10% milk and phosphorylation levels of Smad2, Smad3, INK and p38 were assessed by incubating overnight at 4° C. with the following antibody: Phospho-SAPK/JNK (Thr183/Tyr185), from Cell Signaling Technology. Then the membranes were incubated with HRP-conjugated secondary antibody (Jackson Immunoresearch, West Grove, PA). Bands were incubated in Amersham ECL Prime Western Blotting Detection Reagent (GE Healthcare) and visualized using the ChemiDoc MP imaging system (Bio-Rad).

MAPK p38 = MAPK p38 Activation Assay in Panc-1 (western blot); format: cell-based, Human; set-up: key: Y = yes; N = No; settings: at 10 μM
Protocol: as §1
as §2, with “MAPK p38” for “JNK”
as §3, with “Smad2/Smad3” for “Smad2, Smad3, INK and p38”, “Phospho-p38 MAPK (Thr180/Tyr182),” for “Phospho-SAPK/JNK (Thr183/Tyr185),”

KRas wild type = KRas wild type (Homo sapiens (Human), UniProt P01116); assay: Ras GTP Binding Domain Inhibition Assay, KRas wild type
Sequence of KRas wild type (P01116 other isoform, or with tags, fused parts or gaps): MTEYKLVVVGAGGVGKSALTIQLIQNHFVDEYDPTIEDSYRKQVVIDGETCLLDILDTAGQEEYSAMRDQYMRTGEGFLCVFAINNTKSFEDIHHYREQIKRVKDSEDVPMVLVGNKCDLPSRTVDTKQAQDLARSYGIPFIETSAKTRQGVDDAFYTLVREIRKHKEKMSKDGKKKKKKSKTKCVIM
Protocol: (§4) A Ras Superfamily Activity Assay (as disclosed in International Application No. PCT/US2018/038613, filed Jun. 20, 2018, which is incorporated by reference in its entirety) was used as a specific assay to evaluate compounds against the following for the following Ras Superfamily proteins: KRas wild type, KRas Q61H mutant, KRas G12C mutant, KRas G12D mutant, Rac-1, and Rho-A.
(§5) Buffer-I: • 25 mM Tris-HCl, pH 7.4 • 27 mM KCl • 137 mM NaCl • 1 mM MgCl2 • 1 mM DTT
(§6) Buffer-II: • 50 mM Tris-HCl, pH 7.0 • 1 mM MgCl2 • 1 mM DTT
(§7) The small GTPases proteins: KRas wild type. KRas Q61H mutant, KRas G12C mutant, KRas G12D mutants, Rac-1, and Rho-A were expressed as His-tagged proteins. In addition, the Guanosine nucleotide Exchange Factor (GEF) Sos protein (residues 556-1049) was expressed as a His-tagged protein. In cells, the guanine nucleotide exchange factor Sos protein promotes activation of Ras proteins by stimulating an exchange of GDP for GTP. The inclusion of Sos to the Ras GTP binding domain inhibition assay may be considered as an alternative representation of physiological cellular conditions for evaluating the inhibitory activity of some of the tested small molecules.
(§8) For the assay, all purified small GTPases proteins were diluted in Buffer-I or Buffer-II to a final concentration of 10-30 μg/mL. 200 μL of each diluted protein was added to a nickel-coated 96-well plate and incubated overnight at 4° C. Then the protein solution was discarded and 200 μL of Buffer-I or Buffer-II was added to each well in the presence of 1% DMSO. Compounds to be tested were added to the protein-coated wells at final concentration of 20 μM, and incubated for 3 hours at room temperature with and without 10-30 μg/mL of Sos added to the final hour of the incubation. When performing IC50 measurements a serial dilution of all tested concentrations was added. Then Cy3-GTP or Cy5-GTP was added to each well to a final concentration of 100 nM. The labeled GTP was incubated for 45 minutes at room temperature. Following GTP incubation, wells were washed 3× in Buffer-I or Buffer-II and 200 μL of Buffer-I or Buffer-II was added to each well. Following washes, the amount of bound labeled-GTP was measured using a SpectraMax M3 (Molecular Devices).

KRas G12D mutant = KRas G12D mutant (Homo sapiens (Human), UniProt P01116, G12D); assay: Ras GTP Binding Domain Inhibition Assay, KRas G12D mutant; settings: for inhibition at 20 µM: Table 7; for KRas G12D mutant + SOS: % inh. / KRas G12D mutant: % inh.: 20 uM, Table 8
Sequence of KRas G12D mutant (P01116 other isoform, or with tags, fused parts or gaps G12D): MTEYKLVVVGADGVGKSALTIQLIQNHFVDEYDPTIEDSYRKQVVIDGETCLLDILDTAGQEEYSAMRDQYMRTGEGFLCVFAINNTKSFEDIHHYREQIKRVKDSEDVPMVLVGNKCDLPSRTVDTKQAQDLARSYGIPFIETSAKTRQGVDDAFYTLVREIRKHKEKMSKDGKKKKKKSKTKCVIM
Protocol: as §4, §5, §6, §7, §8

Rho-A = Rho-A (Homo sapiens (Human), UniProt P61586); assay: Ras GTP Binding Domain Inhibition Assay, Rho-A; settings: without SOS, read-out: Rho-A: % inh.
Sequence of Rho-A (P61586 whole entry, species assumed, the tested form may be a part): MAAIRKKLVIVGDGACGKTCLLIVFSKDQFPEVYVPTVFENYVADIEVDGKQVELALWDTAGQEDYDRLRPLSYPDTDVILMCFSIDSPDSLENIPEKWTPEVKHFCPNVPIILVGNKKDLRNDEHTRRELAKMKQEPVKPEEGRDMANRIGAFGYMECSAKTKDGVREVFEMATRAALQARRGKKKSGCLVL
Protocol: as §4, §5, §6, §7, §8

[1] = + SOS, read-out: KRas wild type + SOS: % inh.
[2] = without SOS, read-out: KRas wild type: % inh.
[3] = + SOS, read-out: KRas G12D mutant + SOS: % inh.
[4] = without SOS, read-out: KRas G12D mutant: % inh.

SMILES | Activation of JNK in PANC-1 (JNK) | Activation of MAPK p38 in PANC-1 (MAPK p38) | inhibition at 20 µM (KRas wild type; [1]) [%] | inhibition at 20 µM (KRas wild type; [2]) [%] | inhibition at 20 µM (KRas G12D mutant; [3]) [%] | KRas G12D mutant + SOS: % inh. (KRas G12D mutant; + SOS) | inhibition at 20 µM (KRas G12D mutant; [4]) [%] | KRas G12D mutant: % inh. (KRas G12D mutant; without SOS) | inhibition at 20 µM (Rho-A) [%]
COCCO[C@H]1CC[C@@H](Nc2nc(-c3nccn3C)nc3sc(-c4ccn(C(C)C)n4)c(C)c23)C1 (racemic) [Compound 20, rac-6-(1-Isopropyl-1H-pyrazol-3-yl)-N-((1R,3S)-3-(2-methoxyethoxy)cyclopentyl)-5-methyl-2-(1-methyl-1H-imidazol-2-yl)thieno[2,3-d]pyrimidin-4-amine] | Y | Y | 76 to 100 | 76 to 100 | 76 to 100 | D (D = 76-100% inhibition) | 76 to 100 | D (D = 76-100% inhibition) | 46 to 75
Cc1c(-c2ccn(C(C)C)n2)sc2nc(-c3nccn3C)nc(NCC3COCCN3C)c12 (racemic) [Compound 24, rac-6-(1-Isopropyl-1H-pyrazol-3-yl)-5-methyl-2-(1-methyl-1H-imidazol-2-yl)-N-((4-methylmorpholin-3-yl)methyl)thieno[2,3-d]pyrimidin-4-amine] | Y | Y | 76 to 100 | 26 to 45 | 76 to 100 | D (D = 76-100% inhibition) | 46 to 75 | C (C = 46-75% inhibition) | 46 to 75
Cc1c(-c2ccn(C(C)C)n2)sc2nc(-c3nccn3C)nc(NCC3CN(C)CCO3)c12 (racemic) [Compound 25, rac-6-(1-Isopropyl-1H-pyrazol-3-yl)-5-methyl-2-(1-methyl-1H-imidazol-2-yl)-N-((4-methylmorpholin-2-yl)methyl)thieno[2,3-d]pyrimidin-4-amine] | Y | Y | 76 to 100 | 76 to 100 | 76 to 100 | D (D = 76-100% inhibition) | 76 to 100 | D (D = 76-100% inhibition) | 76 to 100
Cc1c(-c2ccn(C(C)C)n2)sc2nc(-c3nccn3C)nc(NCC3CCCO3)c12 (racemic) [Compound 26, rac-6-(1-Isopropyl-1H-pyrazol-3-yl)-5-methyl-2-(1-methyl-1H-imidazol-2-yl)-N-((tetrahydrofuran-2-yl)methyl)thieno[2,3-d]pyrimidin-4-amine] | Y | Y | 76 to 100 | 76 to 100 | 46 to 75 | C (C = 46-75% inhibition) | 76 to 100 | D (D = 76-100% inhibition) | 76 to 100
COCC1(OC)CCN(c2nc(-c3nccn3C)nc3sc(-c4ccn(C(C)C)n4)c(C)c23)C1 (racemic) [Compound 27, rac-6-(1-Isopropyl-1H-pyrazol-3-yl)-4-(3-methoxy-3-(methoxymethyl)pyrrolidin-1-yl)-5-methyl-2-(1-methyl-1H-imidazol-2-yl)thieno[2,3-d]pyrimidine] | Y | Y | 76 to 100 | 76 to 100 | 76 to 100 | D (D = 76-100% inhibition) | 46 to 75 | C (C = 46-75% inhibition) | 46 to 75
COCCn1ccc(-c2sc3nc(-c4nccn4C)nc(NC[C@H]4CC[C@H]4COC)c3c2C)n1 (racemic) [Compound 38, rac-6-(1-(2-Methoxyethyl)-1H-pyrazol-3-yl)-N-(((1S,2R)-2-(methoxymethyl)cyclobutyl)methyl)-5-methyl-2-(1-methyl-1H-imidazol-2-yl)thieno[2,3-d]pyrimidin-4-amine] | Y | Y | 76 to 100 | 46 to 75 | 76 to 100 | D (D = 76-100% inhibition) | 26 to 45 | B (B = 26-45% inhibition) | 26 to 45
COCCn1ccc(-c2sc3nc(-c4nccn4C)nc(N[C@@H]4CC[C@H](OC)C4)c3c2C)n1 (racemic) [Compound 39, rac-N-((1R,3S)-3-Methoxycyclopentyl)-6-(1-(2-methoxyethyl)-1H-pyrazol-3-yl)-5-methyl-2-(1-methyl-1H-imidazol-2-yl)thieno[2,3-d]pyrimidin-4-amine] | Y | Y | 76 to 100 | 76 to 100 | 76 to 100 | D (D = 76-100% inhibition) | 46 to 75 | C (C = 46-75% inhibition) | 46 to 75
COc1cccc(-c2sc3nc(-c4nccn4C)nc(N[C@@H]4CC[C@@H](OC)C4)c3c2-c2ccccc2)c1F (racemic) [Compound 41, 6-(2-Fluoro-3-methoxyphenyl)-N-((1R,3R)-3-methoxycyclopentyl)-2-(1-methyl-1H-imidazol-2-yl)-5-phenylthieno[2,3-d]pyrimidin-4-amine] | Y | Y | 76 to 100 | 26 to 45 | 46 to 75 | C (C = 46-75% inhibition) | 1 to 25 | A (A = 1-25% inhibition) | 0
